Reference: US10765621B2, “Extracts of halimione portulacoides and their application” (Cutech Srl, priority 2013, dated 2020)

Experiments:
[1] = test system: IL-1α; experiment: IL-1α release by ex-vivo human skin stimulated with 2% SDS (ELISA); type: cell-based
Experimental: In order to study the biological activity of the extracts from Halimione on the inflammatory response of skin to irritation, the experimental protocol summarized below was adopted: Ex-vivo skin samples (7 mm in diameter) were cultivated for 24 hours in 6-well plates (4 skin samples/well) with 2.5 ml/well of modified Williams E medium.
After 24 hours of culture the culture medium was renewed and the skin samples 2 to 6 received the irritant stimulus (2% SDS) through topical application of 4 μl of preparation on each skin sample. After 3 hours the stimulus was removed by means of cotton buds and then 4 μl of extract or dexamethasone were topically administered to the groups 3 to 6. Stimulus and lenitive treatments were diluted in 50% DMSO.
After a further 24 hours of cultivation, the culture media were separately collected from each group and the released IL-1α quantified via ELISA (BioLegend ELISAMAX cat. n. 434905).
Table 14 reports the average values of IL-1α obtained from the two medium samples (4 skin samples/well) collected for each experimental group.

[2] = test system: hair follicles; conditions: usual response, indicative; cited from earlier work

## C[C@@H]1C[C@H]2[C@@H]3CCC4=CC(=O)C=C[C@]4(C)[C@@]3(F)[C@@H](O)C[C@]2(C)[C@@]1(O)C(=O)CO [Dexam., dexamethasone]
[1]; 2% SDS stimulus, then lenitive treatment 10 mM (positive control), 24 h
  IL-1α released in culture medium: 9.9 pg/mL

## CCCCCCCCCCCCOS(=O)(=O)[O-].[Na+] [SDS]
[1]; 2% SDS stimulus without lenitive treatment (negative control), unstimulated control 1.3
  IL-1α released in culture medium: 14.8 pg/mL

## insulin
[2]
  Hair follicle growth increment produced by well-known stimulants / positive controls: 10%
